Key:
Arabidopsis callus = type: cell-based
CP4 = assay: Growth on glyceryl glyphosate as sole phosphate source; type: cell-based; settings: strain CP4; 0.2 mM in DF minimal medium
Method: (§1) Bacteria capable of degrading glyphosate are known (Hallas et al., 1988; Malik et al., 1989; and Moore et al., 1983; Heitkamp et al., 1990). Five of these bacteria (PG2482, LBAA, T10, T12 and CP4) and four strains of E. coli were screened for the rapid degradation of glyceryl glyphosate into inorganic phosphate. The bacteria were inoculated into 2 ml Dworkin-Foster(DF) minimal medium containing glucose, sodium gluconate and potassium citrate (each 0.1%) as carbon source and containing 0.2 mM glyceryl glyphosate as a phosphate source. The Dworkin-Foster minimal medium was made by combining 1 liter sterile H2 O with 1 ml each of A, B, C, E and F, 10 ml D, C-sources to final concentration of 0.1% each and P-source to 0.2 mM.
(§2) Bacteria which grew in this medium using glyceryl glyphosate as a sole phosphate source had the ability to cleave both the ester and the phosphonate bond to release the free phosphate. For these bacteria to be useful in the present invention, the first step in the mineralization of glyceryl glyphosate needed is the hydrolysis of the phosphonate ester. Each of the three bacteria which utilized glyceryl glyphosate as a phosphate source were then assayed for a phosphonate monoester hydrolase activity using an in vivo (3-^14 C-) glyceryl glyphosate assay. A 150 ml culture of each bacteria was grown in DF minimal medium with 0.2 mM HK2 PO4 as a phosphate source in a 500 ml flask, 30° C., with shaking. The bacteria were pelleted by centrifugation at 5,000×g for 10 min and resuspended at 10 mg fresh weight/ml. An assay mix included 50 μl cells plus 10 μl (3-^14 C-) glyceryl glyphosate (10,000 cpm/μl) and kept at 30° C. with shaking. After a three hour incubation period, the cells were pelleted in a microfuge and the supernatant injected onto an HPLC anion exchange column and glyphosate analyzed as described above. The pellet was washed twice with 1 ml 10 mM HEPES, pH 7.0, and resuspended in 25 μl buffer. The cells were lysed with 25 μl quench and the debris pelleted in a microfuge. The pellet extract was then analyzed for glyphosate product as described above. Glyphosate was found in the pellet extracts of these three bacteria indicating the presence of a phosphonate monoester hydrolase activity in these organisms.

[1] = tested on: E. coli MM294, JM101, JM101/MPU+, SR200/MPU; assay: as above; type: cell-based; settings: E. coli strains; 0.2 mM in DF minimal medium
Method: as §1, §2

LBAA [2] = assay: as above; type: cell-based; settings: strain LBAA; 0.2 mM in DF minimal medium
Method: as §1, §2

T10 [3] = assay: as above; type: cell-based; settings: strain T10; 0.2 mM in DF minimal medium
Method: as §1, §2

T12 = assay: as above; type: cell-based; settings: strain T12; 0.2 mM in DF minimal medium
Method: as §1, §2

PG2982 = assay: In vivo (3-14C-) glyceryl glyphosate hydrolysis assay in whole cells; type: cell-based, Pseudomonas caryophilli; settings: strain PG2982; three hour incubation, 30° C.
Method: as §2, with “Glyphosate was found in the pellet extracts of these three bacteria indicating the presence of a phosphonate monoester hydrolase activity in these organisms.” left out

LBAA [4] = assay: as above; type: cell-based; settings: strain LBAA; three hour incubation, 30° C.
Method: as §2, with “Glyphosate was found in the pellet extracts of these three bacteria indicating the presence of a phosphonate monoester hydrolase activity in these organisms.” left out

T10 [5] = assay: as above; type: cell-based; settings: strain T10; three hour incubation, 30° C.
Method: as §2, with “Glyphosate was found in the pellet extracts of these three bacteria indicating the presence of a phosphonate monoester hydrolase activity in these organisms.” left out

PG2982 crude extract = assay: In vitro radioactive hydrolysis assay in crude extracts; type: biochemical, Pseudomonas caryophilli; settings: strain PG2982
From the text: The enzymatic reaction can be assayed using labelled (3-^14 C-) glyceryl glyphosate as a substrate and following the conversion to (3-^14 C-)glyphosate as a product using a high pressure liquid chromatography system with a radioactive detector. This assay is the most specific for the phosphonate monoester hydrolase enzymes useful for conditional cell lethality. An enzyme assay consists of 40,000 cpm of labelled (3-^14 C-) glyceryl glyphosate (obtained from NEN Biochemicals), the PEH sample in buffer and buffer to 100 μl final volume. The assay buffer is 10 mM Bis-Tris propane, pH 9.0, plus 100 mM KCl. The reaction is run for 1 hour at 30° C. and then stopped by the addition of 100 μl "quench" which is 100 mM sodium acetate, pH 5.5, in ethanol. […] The radioactivity of the peaks is measured and integrated by a post-column detector. […]
Bacteria which grew in this medium using glyceryl glyphosate as a sole phosphate source had the ability to cleave both the ester and the phosphonate bond to release the free phosphate. […] After a three hour incubation period, the cells were pelleted in a microfuge and the supernatant injected onto an HPLC anion exchange column and glyphosate analyzed as described above. […] The pellet extract was then analyzed for glyphosate product as described above. […]

[6] = tested on: E. coli MM294, JM101, JM101/MPU+, SR200/MPU crude extract; assay: as above; type: biochemical; settings: E. coli strains
From the text: (§3) The enzymatic reaction can be assayed using labelled (3-^14 C-) glyceryl glyphosate as a substrate and following the conversion to (3-^14 C-)glyphosate as a product using a high pressure liquid chromatography system with a radioactive detector. This assay is the most specific for the phosphonate monoester hydrolase enzymes useful for conditional cell lethality. An enzyme assay consists of 40,000 cpm of labelled (3-^14 C-) glyceryl glyphosate (obtained from NEN Biochemicals), the PEH sample in buffer and buffer to 100 μl final volume. The assay buffer is 10 mM Bis-Tris propane, pH 9.0, plus 100 mM KCl. The reaction is run for 1 hour at 30° C. and then stopped by the addition of 100 μl "quench" which is 100 mM sodium acetate, pH 5.5, in ethanol. The denatured protein is then spun down at 10,000 rpm in a microfuge and the supernatant transferred to an HPLC injection vial. A 100 μl aliquot is then injected onto an Synchropac AX100 anion exchange column 4.6×250 mm) pre-equilibrated in 65 mM potassium phosphate buffer, pH 5.5. The radioactive compounds are eluted isocratically for 15 min at 1 ml/min. The radioactivity of the peaks is measured and integrated by a post-column detector. Typically, the substrate elutes at 4.9 min and the product, glyphosate, at 9.7 min providing baseline separation. […] Alternatively, blank reactions can be included to determine the preexisting glyphosate contamination.
as §2, with “Glyphosate was found in the pellet extracts of these three bacteria indicating the presence of a phosphonate monoester hydrolase activity in these organisms.” left out

LBAA crude extract = assay: as above; type: biochemical; settings: strain LBAA
From the text: as §3
as §2, with “Glyphosate was found in the pellet extracts of these three bacteria indicating the presence of a phosphonate monoester hydrolase activity in these organisms.” left out

T10 crude extract = assay: as above; type: biochemical; settings: strain T10
From the text: as §3
as §2, with “Glyphosate was found in the pellet extracts of these three bacteria indicating the presence of a phosphonate monoester hydrolase activity in these organisms.” left out

T12 crude extract = assay: as above; type: biochemical; settings: strain T12
From the text: as §3
as §2, with “Glyphosate was found in the pellet extracts of these three bacteria indicating the presence of a phosphonate monoester hydrolase activity in these organisms.” left out

O=C(O)CNCP(=O)(O)OCC(O)CO (centres unmarked) [glyceryl glyphosate, glycine, N-([hydroxy (2,3 dihydroxy propoxy)phosphonyl]methyl)]
Cytotoxicity (Arabidopsis callus): relatively non-cytotoxic
Glyceryl Glyphosate as Phosphate Source (CP4): No
Glyceryl Glyphosate as Phosphate Source [1]: No
Glyceryl Glyphosate as Phosphate Source (LBAA [2]): Yes
Glyceryl Glyphosate as Phosphate Source (T10 [3]): Yes
Glyceryl Glyphosate as Phosphate Source (T12): No
In vivo Hydrolysis of Glyceryl Glyphosate into Glyphosate (PG2982): Yes
In vivo Hydrolysis of Glyceryl Glyphosate into Glyphosate (LBAA [4]): Yes
In vivo Hydrolysis of Glyceryl Glyphosate into Glyphosate (T10 [5]): Yes
Hydrolysis of Glyceryl Glyphosate into Glyphosate in Crude Extracts (PG2982 crude extract): Yes
Hydrolysis of Glyceryl Glyphosate into Glyphosate in Crude Extracts [6]: No
Hydrolysis of Glyceryl Glyphosate into Glyphosate in Crude Extracts (LBAA crude extract): Yes
Hydrolysis of Glyceryl Glyphosate into Glyphosate in Crude Extracts (T10 crude extract): No
Hydrolysis of Glyceryl Glyphosate into Glyphosate in Crude Extracts (T12 crude extract): Yes
